“Also recorded” adds a separate entry of the source.
Tests used:
p38 = assay: Western blot of proximal ascending aorta: p38 activation (Examples 6-8); type: in vivo; conditions: Fbn1^C1039G/+ mice, RDEA119 trial, FIG. 16D
Text: (§1) All mice were cared for under strict compliance with the Animal Care and Use Committee of the Johns Hopkins University School of Medicine. The Smad4 haploinsufficient mice were a generous gift from Dr. Chuxia Deng (NIH/NIDDK, Bethesda). The Fbn1^C1039G/+ line was maintained on a C57BL/6 background, allowing for valid comparisons. In order to further accommodate the potential for temporal- or background-specific variation in genetic or pharmacological manipulation experiments, all comparisons were made between contemporary littermates. Mice were checked daily for death and all mice found dead were immediately necropsied to assess for evidence of aortic dissection. Mice were killed with an inhalation overdose of halothane (Sigma-Aldrich, St. Louis). […] Following PBS infusion, mice analyzed for aortic histology had latex injected under low pressure into the left ventricular apex until it was visible in the descending abdominal aorta. […]
(§2) Protein was extracted using the reagents and protocol from a Total Protein Extraction Kit, in conjunction with a Protein Phosphatase Inhibitor Cocktail (Millipore, MA). […] Equal protein loading of samples was determined by a protein assay (BioRad, CA) and confirmed by probing with antibodies against β-Actin or GAPDH (Sigma, Mo.). […]

JNK1 = assay: Western blot of proximal ascending aorta: JNK1 activation (Examples 6-8); type: in vivo, mice
Text: as §1, §2

ERK1/2 = assay: Western blot of proximal ascending aorta: ERK1/2 activation (Examples 6-8); type: in vivo, mice
Text: (§3) All mice were cared for under strict compliance with the Animal Care and Use Committee of the Johns Hopkins University School of Medicine. The Smad4 haploinsufficient mice were a generous gift from Dr. Chuxia Deng (NIH/NIDDK, Bethesda). The Fbn1^C1039G/+ line was maintained on a C57BL/6 background, allowing for valid comparisons. In order to further accommodate the potential for temporal- or background-specific variation in genetic or pharmacological manipulation experiments, all comparisons were made between contemporary littermates. Mice were checked daily for death and all mice found dead were immediately necropsied to assess for evidence of aortic dissection. Mice were killed with an inhalation overdose of halothane (Sigma-Aldrich, St. Louis). Mice underwent immediate laparotomy, descending abdominal aortic transection, and PBS (pH 7.4) infusion through the left ventricle to flush out the blood. For Western blot analysis, the proximal ascending aorta (root to right brachiocephalic trunk) was removed, flash frozen in liquid nitrogen and stored at −80° C. Following PBS infusion, mice analyzed for aortic histology had latex injected under low pressure into the left ventricular apex until it was visible in the descending abdominal aorta. The mice were then fixed for 24 hours in 10% buffered formalin, after which the heart and aorta were removed and stored in 70% ethanol.
(§4) Mouse monoclonal TGFβNAb (1d11; R&D Systems, Minneapolis) was reconstituted in PBS and administered via intraperitoneal injection 3 times a week at a dose of 5 mg/kg. Treatment was initiated at 1 month of age and continued for 2 months. IgG (Zymed Laboratories Inc, San Francisco) was reconstituted in PBS, and administered at a dose of 10 mg/kg as a control. […]
as §2

[1] = Body weight at the end of the two month RDEA119 trial; type: in vivo; conditions: WT or Fbn1^C1039G/+ mice, FIG. 25
Description: (§5) Mouse monoclonal TGFβNAb (1d11; R&D Systems, Minneapolis) was reconstituted in PBS and administered via intraperitoneal injection 3 times a week at a dose of 5 mg/kg. Treatment was initiated at 1 month of age and continued for 2 months. IgG (Zymed Laboratories Inc, San Francisco) was reconstituted in PBS, and administered at a dose of 10 mg/kg as a control. SP600125 (Sigma-Aldrich, St. Louis) was reconstituted in 10% DMSO dissolved in PBS, and administered twice daily by intraperitoneal injection, at a dose of 30 mg/kg. Treatment was initiated at 1 month of age and continued for 2 months. 10% DMSO dissolved in PBS was administered as a control. RDEA119 was reconstituted in 10% 2-hydroxypropyl-beta-cyclodextrin (Sigma-Aldrich, St. Louis) dissolved in PBS, and administered twice daily by oral gavage at a dose of 25 mg/kg. Treatment was initiated at 2 months of age and continued for 2 months. 10% 2-hydroxypropyl-beta-cyclodextrin dissolved in PBS was administered as a control. Fasudil was dissolved in drinking water, and administered at a dose of 1 mg/kg body weight per day. Treatment was initiated at 2 months of age and continued for 4 months. Drinking water was administered as a control. […]

ERK5 = assay: Western blot of proximal ascending aorta: ERK5 activation (Examples 6-8); type: in vivo; conditions: Fbn1^C1039G/+ mice, RDEA119 trial, FIG. 16D
Text: as §1, §2

WT mice = assay: Aortic root growth by echocardiography, WT mice (Examples 6-8); type: in vivo
Text: as §3, §4
(§6) Nair hair removal cream was used on all mice the day prior to echocardiography. […] Three separate measurements of the maximal internal systolic dimension at the sinus of Valsalva and proximal ascending aorta were made, and a mean was calculated. […]

Smad2 = assay: Western blot of proximal ascending aorta: Smad2 activation (Examples 6-8); type: in vivo; conditions: Fbn1^C1039G/+ mice, RDEA119 trial, FIG. 16D
Text: as §1, §2

Fbn1^C1039G/+ mice = assay: Aortic root and ascending aortic growth by echocardiography (Examples 6-8); type: in vivo
Text: as §3
Mouse monoclonal TGFβNAb (1d11; R&D Systems, Minneapolis) was reconstituted in PBS and administered via intraperitoneal injection 3 times a week at a dose of 5 mg/kg. Treatment was initiated at 1 month of age and continued for 2 months. IgG (Zymed Laboratories Inc, San Francisco) was reconstituted in PBS, and administered at a dose of 10 mg/kg as a control. SP600125 (Sigma-Aldrich, St. Louis) was reconstituted in 10% DMSO dissolved in PBS, and administered twice daily by intraperitoneal injection, at a dose of 30 mg/kg. Treatment was initiated at 1 month of age and continued for 2 months. 10% DMSO dissolved in PBS was administered as a control. RDEA119 was reconstituted in 10% 2-hydroxypropyl-beta-cyclodextrin (Sigma-Aldrich, St. Louis) dissolved in PBS, and administered twice daily by oral gavage at a dose of 25 mg/kg. Treatment was initiated at 2 months of age and continued for 2 months. 10% 2-hydroxypropyl-beta-cyclodextrin dissolved in PBS was administered as a control. Fasudil was dissolved in drinking water, and administered at a dose of 1 mg/kg body weight per day. Treatment was initiated at 2 months of age and continued for 4 months. Drinking water was administered as a control.
Nair hair removal cream was used on all mice the day prior to echocardiography. All echocardiograms were performed on awake, unsedated mice using the Visualsonics Vevo 660 V1.3.6 imaging system and a 30 MHz transducer. The aorta was imaged using a parasternal long axis view. Three separate measurements of the maximal internal systolic dimension at the sinus of Valsalva and proximal ascending aorta were made, and a mean was calculated. All imaging and measurements were performed by a cardiologist who was blinded to genotype and treatment arm. In the TGFβNAb and SP600125 trials, mice were imaged at 1 month (baseline) and 3 months of age, after which they were killed. In the RDEA119 trial, mice were imaged at 2 months (baseline) and 4 months of age, after which they were killed. In the fasudil trial, mice were imaged at 2 months (baseline) and 6 months of age, after which they were killed. Smad4 haploinsufficient mice were imaged at 1 month, and then every 2 months thereafter, until death or sacrifice.

[2] = system: S4^+/−:Fbn1^C1039G/+ mice; assay: Aortic root and ascending aortic growth by echocardiography, Smad4 haploinsufficient MFS mice; type: in vivo
Text: as §3
as §5, with “months.” for “months. Drinking water was administered as a control.”
as §6

[3] = system: abdominal aortic aneurysm induced by the periaortic application of calcium chloride; conditions: prior work (Yoshimura et al. 2005), in association with reduced JNK1 activation; cited from earlier work
[4] = system: S4^+/−:Fbn1^C1039G/+ mice; assay: Survival (premature death due to aortic dissection); type: in vivo
Text: as §3, with “ethanol. […]” for “ethanol.”

[5] = Fbn1^C1039G/+ mice, RDEA119 trial, FIG. 16D
[6] = 25 mg/kg twice daily oral gavage, 2 to 4 months of age, FIG. 16C
[7] = RDEA119 trial, 2 months of treatment
[8] = WT and Fbn1^C1039G/+ mice after two weeks of therapy, FIG. 24
[9] = 30 mg/kg twice daily i.p., 1 to 3 months of age, FIG. 23A

## COc1cc(F)c(F)c(Nc2ccc(I)cc2F)c1NS(=O)(=O)C1(C[C@H](O)CO)CC1 [RDEA119]
p38
  p38 activation: unchanged
JNK1; [5]
  JNK1 activation: unchanged
ERK1/2; [5]
  ERK1/2 activation: selective reduction in pERK1/2 signaling; also recorded: significant reduction in ERK1/2 activation
[1]
  Weight (somatic growth) at the end of the two month trial: does not significantly affect somatic growth; also recorded: did not significantly affect the weight
ERK5
  ERK5 activation: unchanged
WT mice; [6]
  Final absolute aortic root diameter: 1.64+/−0.09 mm
WT mice; [7]
  Aortic root growth: no significant effect
Smad2
  Smad2 activation: unchanged
Fbn1^C1039G/+ mice; [6]
  Final absolute aortic root diameter: 1.94+/−0.07 mm
Fbn1^C1039G/+ mice; [7]
  Aortic root growth: selectively reduced growth; also recorded: significantly less than that of placebo-treated

## O=C1c2ccccc2-c2n[nH]c3cccc1c23 [SP600125]
JNK1; [8]
  JNK1 activation: significant reduction in JNK1 activation; also recorded: reduction of JNK1 activation to levels below baseline
ERK1/2; [8]
  ERK1/2 activation: no change in ERK1/2 activation; also recorded: remained unaffected
[2]; [9]
  Final absolute aortic root diameter: 2.09+/−0.16 mm
  Final absolute ascending aortic diameter: 1.47+/−0.14 mm
[2]; SP600125 trial, versus placebo
  Aortic root growth: decreased aortic root growth; also recorded: significant reduction
  Ascending aortic growth: reduced ascending aortic growth; also recorded: significant reduction
[3]
  Abdominal aortic aneurysm: ameliorate abdominal aortic aneurysm
Fbn1^C1039G/+ mice; [9]
  Final absolute aortic root diameter: 1.97+/−0.16 mm
  Final absolute ascending aortic diameter: 1.38+/−0.06 mm
Fbn1^C1039G/+ mice; SP600125 trial, versus placebo
  Aortic root growth: decreased aortic root growth; also recorded: ameliorated their aortic root growth
[4]; 50% of placebo-treated had died
  Mice still alive at 3 months of age: all
[4]; FIG. 23B
  Premature death due to aortic dissection: prevention of premature death; also recorded: prevented the premature death

— US20140148498A1, “METHODS AND COMPOSITIONS FOR THE TREATMENT OF MARFAN SYNDROME AND ASSOCIATED DISORDERS” (THE JOHNS HOPKINS UNIVERSITY, priority 2011, published 2014)
